Experimental data taken from article PMC4077236 (Neurochemistry International, 2014).
Where “and” joins values, the source holds several entries; their conditions need not be identical. Equal values may be shown once. Entries after “also recorded” stand apart in the source; their conditions may differ. Read-outs that look alike come from different tables or passages of the source.

What was measured:
[1] = target: T1, human NET (Homo sapiens, UniProt P23975)
Procedure: (§1) For release studies, HEK-SERT, HEK-NET, or HEK-DAT cells were grown overnight on round glass coverslips (5-mm diameter, 40,000 cells per coverslip) placed in a 96-well plate and preloaded with 0.4 μM [^3H]dopamine, 0.1 μM [^3H]MPP+, or 0.4 μM [^3H]5-HT for 20 min at 37 °C in a final volume of 0.1 mL/well. […] A washout period of 40 min established a stable baseline for efflux of radioactivity; thereafter, substances were added and the experiment was started with the collection of fractions (2 min). At the end of the experiment, cells were lysed in 1% SDS and the released radioactivity was quantified by liquid scintillation counting.
(§2) The release of [^3H] labelled substrate was expressed as fractional rate (i.e., the radioactivity released within one fraction was expressed as a percentage of the total radioactivity present in the cells at the beginning of that fraction). Drug-induced release was calculated by subtracting the estimated basal release from total release during the first 8 min of drug exposure and is expressed as a percentage of radioactivity in the cell at the beginning of drug exposure. Data were normalized by using cpm values with no substance present (only solvent) as 100%.

[2] = target: T2, human SERT (Homo sapiens, UniProt P31645)
[3] = target: T3, human DAT (Homo sapiens, UniProt Q01959); assay: cell-based
Procedure: (§3) In brief, the cells were washed twice with Krebs–Ringer–HEPES buffer (KHB; composition: 25 mM HEPES·NaOH, pH 7.4, 120 mM NaCl, 5 mM KCl, 1.2 mM CaCl2, and 1.2 mM MgSO4 supplemented with 5 mM D-glucose). Then, the diluted reference and sample compounds were added and incubated for 5 min to allow for equilibration with the transporters. Subsequently, the tritiated substrates were added and the reaction was stopped after 1 min (SERT and DAT) and 3 min (NET), respectively. Cells were lysed with 1% SDS and the released radioactivity was quantified by liquid scintillation counting. All determinations were performed in duplicate or triplicate.
(§4) The release of [^3H] labelled substrate was expressed as fractional rate (i.e., the radioactivity released within one fraction was expressed as a percentage of the total radioactivity present in the cells at the beginning of that fraction). Drug-induced release was calculated by subtracting the estimated basal release from total release during the first 8 min of drug exposure and is expressed as a percentage of radioactivity in the cell at the beginning of drug exposure. Data were normalized by using cpm values with no substance present (only solvent) as 100%. IC50 values were calculated using non-linear regression fits performed with Prism software (GraphPad 5.0, San Diego, CA, U.S.A.). Data transformed into Dixon plots were fitted by linear regression.

[4] = stated without reference; cited from earlier work
[5] = after levamisole administration; ref Hess et al., 2013; cited from earlier work
[6] = target: T2, human SERT; assay: cell-based
[7] = target: T1, human NET; assay: cell-based
[8] = target: T3, human DAT
Procedure: as §3, §4

[9] = target: T2, human SERT; remark: listed apart in the source
Procedure: as §1, §2

[10] = target: T1, human NET; remark: listed apart in the source
[11] = target: T3, human DAT; remark: listed apart in the source
Procedure: as §1, §2

[12] = in vivo; settings: human, plasma, po, 50 mg
[13] = ref Lin and Tsai, 2006; cited from earlier work
[14] = IC50 uptake inhibition DAT in the absence of cocaine, allosteric interaction experiment, dopamine uptake
[15] = IC50 uptake inhibition DAT, HEK293 stably expressing human DAT, substrate [3H]dopamine 0.1 μM, 5 min preincubation
[16] = IC50 uptake inhibition NET in the absence of cocaine

T3 sequence (Q01959 whole entry): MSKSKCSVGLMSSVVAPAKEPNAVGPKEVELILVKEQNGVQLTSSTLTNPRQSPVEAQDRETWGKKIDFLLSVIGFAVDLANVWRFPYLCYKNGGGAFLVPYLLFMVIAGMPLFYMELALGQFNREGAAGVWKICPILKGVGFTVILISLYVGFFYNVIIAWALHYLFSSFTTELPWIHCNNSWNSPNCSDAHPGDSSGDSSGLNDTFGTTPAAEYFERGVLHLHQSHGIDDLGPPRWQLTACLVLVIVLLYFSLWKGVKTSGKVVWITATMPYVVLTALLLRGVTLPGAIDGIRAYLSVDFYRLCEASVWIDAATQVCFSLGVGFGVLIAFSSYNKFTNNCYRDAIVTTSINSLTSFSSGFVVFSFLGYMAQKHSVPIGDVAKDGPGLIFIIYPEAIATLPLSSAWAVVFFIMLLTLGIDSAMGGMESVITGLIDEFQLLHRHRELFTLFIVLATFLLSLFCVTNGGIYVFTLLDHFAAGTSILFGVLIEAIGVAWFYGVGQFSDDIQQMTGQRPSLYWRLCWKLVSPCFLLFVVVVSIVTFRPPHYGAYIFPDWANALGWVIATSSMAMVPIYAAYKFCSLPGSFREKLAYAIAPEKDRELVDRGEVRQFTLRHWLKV
T2 sequence (P31645 whole entry): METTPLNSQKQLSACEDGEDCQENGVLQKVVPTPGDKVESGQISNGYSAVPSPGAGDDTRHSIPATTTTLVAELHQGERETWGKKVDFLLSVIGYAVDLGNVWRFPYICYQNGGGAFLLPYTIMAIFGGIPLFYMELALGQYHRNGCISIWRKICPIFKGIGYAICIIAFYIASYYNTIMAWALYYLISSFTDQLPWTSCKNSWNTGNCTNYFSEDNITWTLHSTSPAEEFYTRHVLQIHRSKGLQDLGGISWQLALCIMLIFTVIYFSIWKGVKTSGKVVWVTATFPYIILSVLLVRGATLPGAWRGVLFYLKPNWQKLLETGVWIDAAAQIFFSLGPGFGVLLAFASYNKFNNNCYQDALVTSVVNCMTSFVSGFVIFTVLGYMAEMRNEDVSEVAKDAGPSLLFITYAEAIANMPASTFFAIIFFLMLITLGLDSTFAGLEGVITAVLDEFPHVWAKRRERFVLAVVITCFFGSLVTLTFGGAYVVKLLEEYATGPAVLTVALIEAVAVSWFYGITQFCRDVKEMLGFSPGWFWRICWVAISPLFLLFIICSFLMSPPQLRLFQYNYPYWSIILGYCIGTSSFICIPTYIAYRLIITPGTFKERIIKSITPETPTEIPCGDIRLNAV
T1 sequence (P23975 whole entry): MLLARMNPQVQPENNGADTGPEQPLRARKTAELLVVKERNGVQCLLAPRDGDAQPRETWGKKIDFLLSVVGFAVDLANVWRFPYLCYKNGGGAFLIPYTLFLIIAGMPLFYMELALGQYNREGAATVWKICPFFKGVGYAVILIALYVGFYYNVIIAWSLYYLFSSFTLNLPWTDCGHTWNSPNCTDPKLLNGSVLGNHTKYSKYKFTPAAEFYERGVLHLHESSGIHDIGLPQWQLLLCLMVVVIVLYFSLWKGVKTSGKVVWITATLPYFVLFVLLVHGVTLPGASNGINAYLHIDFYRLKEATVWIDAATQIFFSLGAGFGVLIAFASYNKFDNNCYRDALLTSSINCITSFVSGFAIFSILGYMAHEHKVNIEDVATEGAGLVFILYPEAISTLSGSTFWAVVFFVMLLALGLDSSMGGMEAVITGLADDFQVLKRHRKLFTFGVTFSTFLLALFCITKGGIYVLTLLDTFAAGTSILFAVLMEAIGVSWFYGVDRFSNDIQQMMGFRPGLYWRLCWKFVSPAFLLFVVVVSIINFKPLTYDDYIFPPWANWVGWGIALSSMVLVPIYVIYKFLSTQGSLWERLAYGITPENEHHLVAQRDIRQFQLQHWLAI

NC1=NCC(c2ccccc2)O1 (stereo not drawn) [aminorex]
substrate efflux NET ([1]; 3 or 10 μM aminorex, presence and absence of 10 μM monensin): slight increase; also recorded: only a slight response
Dixon plot: binding relative to cocaine at SERT [2]: mutually exclusive manner
SERT inhibited at higher concentrations than NET and DAT [2]: 20 fold
SERT inhibitory effect compared to cocaine [2]: more than 10 fold
IC50 [3, 14]: 0.71 ± 1.05 µM
IC50 [3, 15]: 0.85 µM and 0.855 µM and < 1 µM
pKa [4]: 7.4
time aminorex could be detected in human urine [5]: up to 54 h
IC50 ([6]; IC50 uptake inhibition SERT): 18.4 ± 1.12 µM
IC50 ([6]; IC50 uptake inhibition SERT in the absence of cocaine): 26.3 ± 1.03 µM
IC50 ([7]; IC50 uptake inhibition NET): 0.33 µM and < 1 µM
IC50 [7, 16]: 1.97 ± 1.2 µM
Dixon plot: binding relative to cocaine at DAT ([8]; uptake inhibition with one inhibitor varied at fixed concentration of the other): mutually exclusive manner
substrate efflux SERT [9]: strong release; also recorded: significant substrate release
Dixon plot: binding relative to cocaine at NET [10]: mutually exclusive manner
substrate efflux DAT ([11]; 50 μM aminorex, presence and absence of 10 μM monensin): no releasing effect; also recorded: completely absent

c1ccc([C@H]2CN3CCSC3=N2)cc1 [levamisole]
Cmax [12]: ~1500 nM
blood–brain barrier permeation [13]: readily permeates the blood–brain barrier
substrate efflux NET ([1]; 100 μM levamisole, absence of monensin, [3H]MPP+ preloaded): slight increase; also recorded: slight increased substrate efflux
IC50 [3, 14]: 476 ± 1.54 µM
IC50 [3, 15]: 209.9 ± 1.31 µM
pKa [4]: 7
IC50 ([7]; IC50 uptake inhibition NET): 74.5 µM
IC50 [7, 16]: 521 ± 2.3 µM
less potent than cocaine in blocking dopamine uptake ([8]; relative to cocaine): 300 fold
less potent than cocaine in blocking norepinephrine uptake [10]: 100 fold
substrate efflux DAT ([11]; 100 μM levamisole, absence of monensin, [3H]dopamine preloaded): no efflux was observed; also recorded: could not detect substrate efflux
